In ChEMBL document CHEMBL1155486, “From 6-aminoquinolone antibacterials to 6-amino-7-thiopyranopyridinylquinolone ethyl esters as inhibitors of Staphylococcus aureus multidrug efflux pumps” (2010):
Values after ≈ are worked out from the molar mass of the structure shown.

What was measured:
Staphylococcus aureus [1] = test: Antibacterial activity against methicillin and ciprofloxacin-resistant Staphylococcus aureus 25A by microdilution technique; type: functional
Staphylococcus aureus [2] = test: Antibacterial activity against Staphylococcus aureus K1628 bearing S84L mutant GyrA and S80F mutant GrlA by microdilution technique; type: functional
Staphylococcus aureus [3] = test: Antibacterial activity against wild-type norA expressing Staphylococcus aureus SA-1199 by microdilution technique; type: functional
Staphylococcus aureus [4] = test: Antibacterial activity against Staphylococcus aureus K1640 bearing S84L mutant GyrA and S80Y mutant GrlA by microdilution technique; type: functional
Staphylococcus aureus [5] = test: Antibacterial activity against Staphylococcus aureus SA-K1902 bearing norA- deficient mutation by microdilution technique; type: functional
Staphylococcus aureus [6] = test: Antibacterial activity against Staphylococcus aureus ATCC 25923 by microdilution technique; type: functional
Staphylococcus aureus [7] = test: Antibacterial activity against Staphylococcus aureus K1305 bearing wild-type GyrA and E84K mutant GrlA by microdilution technique; type: functional
Escherichia coli = test: Antibacterial activity against Escherichia coli ATCC 25922 by microdilution technique; type: functional
Staphylococcus aureus [8] = test: Antibacterial activity against Staphylococcus aureus K1035 bearing wild-type GyrA and S80F mutant GrlA by microdilution technique; type: functional
Staphylococcus aureus [9] = test: Antibacterial activity against Staphylococcus aureus SA-K1904 bearing norA++ efficient mutation by microdilution technique; type: functional
Staphylococcus aureus [10] = test: Antibacterial activity against Staphylococcus aureus SA-1199B norA++ and A116E GrlA mutation by microdilution technique; type: functional
Staphylococcus aureus [11] = test: Antibacterial activity against Staphylococcus aureus K1134 bearing wild-type GyrA and S80Y mutant GrlA by microdilution technique; type: functional
[12] = target: T1, Quinolone resistance protein NorA (Staphylococcus aureus) (UniProt P0A0J7); test: Inhibition of NorA in Staphylococcus aureus SA-1199B assessed as reduction in ethidium bromide efflux at 50 uM by fluorimetry; set-up: scale not given: the % may be the effect or the level left
T1 sequence (whole entry): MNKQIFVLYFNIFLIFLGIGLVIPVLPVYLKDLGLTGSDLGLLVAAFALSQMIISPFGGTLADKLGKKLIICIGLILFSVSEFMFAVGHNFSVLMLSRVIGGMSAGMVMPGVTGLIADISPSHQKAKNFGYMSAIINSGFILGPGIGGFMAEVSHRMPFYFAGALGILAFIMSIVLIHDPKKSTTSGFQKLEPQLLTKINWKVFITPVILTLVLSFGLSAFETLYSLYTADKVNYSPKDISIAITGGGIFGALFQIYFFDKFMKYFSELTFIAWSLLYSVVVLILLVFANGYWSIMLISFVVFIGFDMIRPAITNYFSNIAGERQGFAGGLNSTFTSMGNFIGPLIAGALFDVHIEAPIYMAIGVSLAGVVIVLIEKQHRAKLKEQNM

Staphylococcus aureus [13] = test: Antibacterial activity against Staphylococcus aureus SA-1199B by EtBr efflux assay; type: functional

SMILES | MIC (Staphylococcus aureus [1]) [µg/mL] | MIC (Staphylococcus aureus [2]) [µg/mL] | MIC (Staphylococcus aureus [3]) [µg/mL] | MIC (Staphylococcus aureus [4]) [µg/mL] | MIC (Staphylococcus aureus [5]) [µg/mL] | MIC (Staphylococcus aureus [6]) [µg/mL] | MIC (Staphylococcus aureus [7]) [µg/mL] | MIC (Escherichia coli) [µg/mL] | MIC (Staphylococcus aureus [8]) [µg/mL] | MIC (Staphylococcus aureus [9]) [µg/mL] | MIC (Staphylococcus aureus [10]) [µg/mL] | MIC (Staphylococcus aureus [11]) [µg/mL] | Activity [12] [%] | MIC (Staphylococcus aureus [13]) [µg/mL] | MIC50 (Staphylococcus aureus [13]) [µg/mL]
Cc1c(N2CCC3=C(C2)C(=O)CCS3)c(N)cc2c(=O)c(C(=O)O)cn(C3CC3)c12 | 4 (≈ 9.4 µM) | > 10 | 0.31 (≈ 0.729 µM) | > 10 | 0.31 (≈ 0.729 µM) | 0.25 (≈ 0.588 µM) | 1.25 (≈ 2.94 µM) | 1 (≈ 2.35 µM) | 1.25 (≈ 2.94 µM) | 0.31 (≈ 0.729 µM) | 0.63 (≈ 1.48 µM) | 1.25 (≈ 2.94 µM) | – | – | –
CCOC(=O)c1cn(C2CC2)c2cc(N3CCC4=C(C3)C(=O)CCS4)c(N)cc2c1=O | – | – | – | – | – | – | – | – | – | – | – | – | 35.7 | > 100 | –
O=C(O)c1cn(C2CC2)c2cc(N3CCC4=C(C3)C(O)CCS4)c(F)cc2c1=O (stereo unspecified) | 8 (≈ 19.2 µM) | > 10 | 0.04 (≈ 0.096 µM) | > 10 | 0.04 (≈ 0.096 µM) | 0.08 (≈ 0.192 µM) | 0.63 (≈ 1.51 µM) | 64 (≈ 154 µM) | 0.63 (≈ 1.51 µM) | 0.16 (≈ 0.384 µM) | 0.16 (≈ 0.384 µM) | 1.25 (≈ 3 µM) | – | – | –
CC1CSC2=C(CN(c3cc4c(cc3F)c(=O)c(C(=O)O)cn4C3CC3)CC2)/C1=N/O (stereo unspecified) | 4 (≈ 9.02 µM) | > 10 | 0.16 (≈ 0.361 µM) | > 10 | 0.16 (≈ 0.361 µM) | 0.31 (≈ 0.699 µM) | 1.25 (≈ 2.82 µM) | 32 (≈ 72.2 µM) | 1.25 (≈ 2.82 µM) | 0.31 (≈ 0.699 µM) | 0.31 (≈ 0.699 µM) | 1.25 (≈ 2.82 µM) | – | – | –
COC(=O)[C@H]1[C@H]2C[C@@H]3c4[nH]c5cc(OC)ccc5c4CCN3C[C@H]2C[C@@H](OC(=O)c2cc(OC)c(OC)c(OC)c2)[C@@H]1OC | – | – | – | – | – | – | – | – | – | – | – | – | 84.8 | – | –
CCOC(=O)c1cn(C2CC2)c2c(C)c(N3CCC4=C(C3)C(=O)C(C)CS4)c(N)cc2c1=O (stereo unspecified) | – | – | – | – | – | – | – | – | – | – | – | – | 50.5 | > 100 | –
CCOC(=O)c1cn(C2CC2)c2c(C)c(N3CCC4=C(C3)C(=O)CCS4)c(N)cc2c1=O | – | – | – | – | – | – | – | – | – | – | – | – | 36.8 | > 100 | –
Cc1c(N2CCC3=C(C2)C(=O)C(C)CS3)c(N)cc2c(=O)c(C(=O)O)cn(C3CC3)c12 (stereo unspecified) | 32 (≈ 72.8 µM) | > 10 | 0.16 (≈ 0.364 µM) | > 10 | 0.16 (≈ 0.364 µM) | 0.08 (≈ 0.182 µM) | 1.25 (≈ 2.84 µM) | 64 (≈ 146 µM) | 1.25 (≈ 2.84 µM) | 0.16 (≈ 0.364 µM) | 0.31 (≈ 0.705 µM) | 1.25 (≈ 2.84 µM) | – | – | –
COc1c(N2C[C@@H]3CCCN[C@@H]3C2)c(F)cc2c(=O)c(C(=O)O)cn(C3CC3)c12 [MOXIFLOXACIN] | 2 (≈ 4.98 µM) | 5 (≈ 12.5 µM) | 0.08 (≈ 0.199 µM) | 2.5 (≈ 6.23 µM) | 0.08 (≈ 0.199 µM) | < 0.08 | 0.31 (≈ 0.772 µM) | < 0.08 | 0.31 (≈ 0.772 µM) | 0.08 (≈ 0.199 µM) | 0.25 (≈ 0.623 µM) | 0.31 (≈ 0.772 µM) | – | – | –
CCOC(=O)c1cn(C2CC2)c2cc(N3CCNCC3)c(F)cc2c1=O [CIPROFLOXACIN ETHYL ESTER] | – | – | – | – | – | – | – | – | – | – | – | – | 20.8 | – | > 100
CC1CSC2=C(CN(c3cc4c(cc3F)c(=O)c(C(=O)O)cn4C3CC3)CC2)C1=O (stereo unspecified) | 32 (≈ 74.7 µM) | > 10 | 0.08 (≈ 0.187 µM) | > 10 | 0.16 (≈ 0.373 µM) | 0.31 (≈ 0.723 µM) | 1.25 (≈ 2.92 µM) | 8 (≈ 18.7 µM) | 1.25 (≈ 2.92 µM) | 0.16 (≈ 0.373 µM) | 0.16 (≈ 0.373 µM) | 1.25 (≈ 2.92 µM) | – | – | –
Cc1c(N2CCC3=C(C2)/C(=N/O)C(C)CS3)c(N)cc2c(=O)c(C(=O)O)cn(C3CC3)c12 (stereo unspecified) | 8 (≈ 17.6 µM) | – | 0.31 (≈ 0.682 µM) | – | 0.31 (≈ 0.682 µM) | 0.16 (≈ 0.352 µM) | – | 0.5 (≈ 1.1 µM) | – | 0.31 (≈ 0.682 µM) | 1.25 (≈ 2.75 µM) | – | – | – | –
CCOC(=O)c1cn(C2CC2)c2c(C)c(N3CCC4=C(C3)C(O)CCS4)c(N)cc2c1=O (stereo unspecified) | – | – | – | – | – | – | – | – | – | – | – | – | 47.3 | > 100 | –
CCOC(=O)c1cn(C2CC2)c2cc(N3CCC4=C(C3)C(=O)C(C)CS4)c(N)cc2c1=O (stereo unspecified) | – | – | – | – | – | – | – | – | – | – | – | – | 63.5 | > 100 | –
CO/N=C1\CCSC2=C1CN(c1c(N)cc3c(=O)c(C(=O)O)cn(C4CC4)c3c1C)CC2 | 32 (≈ 70.4 µM) | > 10 | 0.31 (≈ 0.682 µM) | > 10 | 0.31 (≈ 0.682 µM) | 0.16 (≈ 0.352 µM) | 1.25 (≈ 2.75 µM) | 16 (≈ 35.2 µM) | 1.25 (≈ 2.75 µM) | 0.31 (≈ 0.682 µM) | 0.31 (≈ 0.682 µM) | 2.5 (≈ 5.5 µM) | – | – | –
CO/N=C1\CCSC2=C1CN(c1cc3c(cc1F)c(=O)c(C(=O)O)cn3C1CC1)CC2 | 1 (≈ 2.25 µM) | – | 1.25 (≈ 2.82 µM) | – | 1.25 (≈ 2.82 µM) | 0.25 (≈ 0.564 µM) | – | 32 (≈ 72.2 µM) | – | 1.25 (≈ 2.82 µM) | 2.5 (≈ 5.64 µM) | – | – | – | –
O=C(O)c1cn(C2CC2)c2cc(N3CCNCC3)c(F)cc2c1=O [CIPROFLOXACIN] | 32 (≈ 96.6 µM) | > 10 | 0.31 (≈ 0.936 µM) | > 10 | 0.31 (≈ 0.936 µM) | 0.5 (≈ 1.51 µM) | 2.5 (≈ 7.54 µM) | ≤ 0.12 | 2.5 (≈ 7.54 µM) | 2.5 (≈ 7.54 µM) | 10 (≈ 30.2 µM) | 2.5 (≈ 7.54 µM) | – | – | –
CO/N=C1/C2=C(CCN(c3c(N)cc4c(=O)c(C(=O)O)cn(C5CC5)c4c3C)C2)SCC1C (stereo unspecified) | 8 (≈ 17.1 µM) | – | 3.13 (≈ 6.68 µM) | – | 6.25 (≈ 13.3 µM) | 16 (≈ 34.1 µM) | – | 8 (≈ 17.1 µM) | – | 6.25 (≈ 13.3 µM) | 3.13 (≈ 6.68 µM) | – | – | – | –
Nc1cc2c(=O)c(C(=O)O)cn(C3CC3)c2cc1N1CCC2=C(C1)C(O)CCS2 (stereo unspecified) | 128 (≈ 310 µM) | – | 25 (≈ 60.5 µM) | – | 12.5 (≈ 30.2 µM) | 16 (≈ 38.7 µM) | – | 128 (≈ 310 µM) | – | 25 (≈ 60.5 µM) | > 100 | – | – | – | –
Cc1c(N2CCc3ccccc3C2)c(N)cc2c(=O)c(C(=O)O)cn(C3CC3)c12 | ≤ 0.12 | 1.25 (≈ 3.21 µM) | ≤ 0.02 | 0.63 (≈ 1.62 µM) | ≤ 0.02 | ≤ 0.12 | ≤ 0.02 | ≤ 0.12 | ≤ 0.02 | ≤ 0.02 | ≤ 0.02 | ≤ 0.02 | – | – | –
CCOC(=O)c1cn(C2CC2)c2cc(N3CCC4=C(C3)C(O)CCS4)c(N)cc2c1=O (stereo unspecified) | – | – | – | – | – | – | – | – | – | – | – | – | 26.3 | > 100 | –
